These are literature values, as cited in patent US7550155B2, “Aqueous pharmaceutical compositions of 2,6-diisopropylphenol (propofol) and their uses” (Transform Pharmaceuticals Inc., priority 2002, dated 2009).

For the data set the following is noted: 10% aqueous solution of P188.

Each structure is given as a SMILES string.

Take `CC(C)c1cccc(C(C)C)c1O` [propofol, 2,6-diisopropylphenol]: the “Propofol held in aqueous P188 solution” value was 0.8%.
